This experiment addresses CDK-2 (Homo sapiens, UniProt P24941). Description: CDK-2 inhibition, fluorescence polarization displacement assay.

The source of these data is patent publication EP1931657B1, “NOVEL HIGH AFFINITY QUINOLINE-BASED KINASE LIGANDS” (Merck Sharp & Dohme Corp., priority 2005, dated 2007).

Experimental: Binding assays were performed in a 384 well Costar NBS coated plate. […] The concentration of BMS-Alexa Fluor647 was 50 nM. Serial dilutions of compounds were added to 12 wells. The final buffer concentration was 10 mM Hepes, pH 7.5, 150 mM NaCl, and 1 mM DTT. Samples were incubated at room temperature for 15 minutes and then read in an Analyst HT instrument using an excitation and emission wavelength of 580 and 680 nm, respectively.

As usually defined, the IC50 is the concentration that gives 50% inhibition. Lower therefore signals greater potency in that assay. The compound `COC(=O)[C@H](Cc1ccc(O)cc1)NC(=O)c1cc(C(=O)OCC(N)C(C)C)c2cc(-c3cccs3)ccc2n1` (stereo partly drawn) [Compound 228] yielded an IC50 of over 40 µM. Under `COC(=O)c1cc(C(=O)N[C@@H](Cc2ccc(O)cc2)C(=O)OC)nc2ccc(-c3cccs3)cc12` [Compound 229] stands over 40 µM.

`COC(=O)[C@H](Cc1ccc(O)cc1)NC(=O)c1cc(C(=O)OCCO)c2cc(-c3cccs3)ccc2n1` [Compound 230] registered an IC50 of over 40 µM. For `CCCCOC(=O)c1cc(C(=O)N[C@@H](Cc2ccc(O)cc2)C(=O)OC)nc2ccc(-c3cccs3)cc12` [Compound 231], the IC50 was over 40 µM. To `COC(=O)[C@H](Cc1ccc(O)cc1)NC(=O)c1cc(C(=O)Nc2nnn[nH]2)c2cc(-c3cccs3)ccc2n1` [Compound 234] belongs over 40 µM; to `COC(=O)C(Cc1ccc(O)cc1)NC(=O)c1cc(C(=O)NC(C)C)c2cc(-c3cccs3)ccc2n1` (stereo not drawn) [Compound 235], over 40 µM.
